Patent EP2246037A2, “Anti-aging and whitening properties of quercetin, 18a-glycyrrhetinic acid, hederagenin and its derivatives” (Korres S.A. Natural Products, priority 2009, dated 2010)
Entries after “also recorded” stand apart in the source; their conditions may differ.

How the values were obtained:
[1] = test system: HFL-1 human diploid fibroblasts; assay: Lifespan (cumulative population doublings) and morphology of fibroblasts under continuous treatment; assay type: cell-based; set-up: key to cpd: cumulative population doublings: CPD=Σ LOG[Nfinal/Ninitial]/LOG[2]; conditions: for appearance of the senescent phenotype: summary of sections 1 and 2
Procedure: The steps, methods and results that were obtained regarding the anti-aging properties of the examined substances are the following: • 1) Study of the lifespan of human diploid fibroblasts in vitro in the presence of the substances. • 1.1. HFL-1 human diploid fibroblasts (HDFs) were used in in vitro conditions (growth at 37°C, 5% CO2 and 95% humidity). • 1.2. The cells were maintained in Dulbecco's modified Eagle's medium (DMEM ®; Invitrogen Life Technologies Inc.) supplemented with 10% (v/v) fetal calf serum, 100 Units/ml penicillin, 100 µg/ml strepromycin, 2 mM glutamine and 1% (v/v) non-essential amino acids (complete medium). • 1.3. The cells were constantly cultured in culture medium supplemented with the substances [final concentration for quercetin (QUER), 18α-glycyrrhetinic acid (18α GA), and hederagenin (HED): 2 µg/ml and for quercetin caprylate (QU-CAP) three concentrations were applied: 0.5, 2 and 5 µg/ml]. Quercetin, 18α-glycyrrhetinic acid and hederagenin were diluted in DMSO (dimethyl sulfoxide) whereas quercetin caprylate was diluted in caprilic/capric triglycerides (CAP). Therefore, the control cultures were incubated in medium supplemented with 0.1% DMSO or 0.1% CAP. • 1.4. The cells were replenished with fresh media supplemented with the substances or the diluents every 24 h and their numbers were examined using a Coulter Z2 ® counter (Coulter Corporation) until they reached senescence (approximately after 13 weeks). The cumulative population doublings performed by each culture were calculated using the following formula: CPD=Σ[PD] where PD=LOG[Nfinal/Ninitial]/LOG[2], where N final represents the number of cells that were measured when each culture reached confluence and N initial represents the number of cells that was initially seeded. • 1.5. Photographs of the cells maintained in cell culture and treated with the various substances for the same time period were taken. • 1.6. […] More specifically, cells that were incubated with quercetin caprylate gave up to 2.8% more population doublings as compared to the population doublings performed by the relative control cultures. Cells that were incubated with the other substances gave up to 2.9% more population doublings as compared to their relative control cultures. • 1.7. […] Cells that were treated with either of the tested substances maintained the young morphology for longer as compared to the control cultures (DMSO-treated and CAP-treated). […] HFL-1 HDFs were cultured as described in 1.1-1.4 for 10 consecutive weeks and were then subjected to β-galactosidase activity staining. • 1.2. Briefly, 10^5 cells from each culture were seeded in 6-well plates. After 24 h cells were washed with PBS (phosphate buffered saline), fixed in 0.2% glutaraldehyde and 2% formaldehyde for 5 min, washed again with PBS, and finally stained for 24 h at 37 °C in the absence of CO2, in staining solution (150 mM NaCl, 2 mM MgCl2, 5 mM K3Fe(CN)6, 40 mM citric acid, and 12 mM sodium phosphate, pH 6.0) containing 1 mg/ml 5-bromo-4-chloro-3-indolyl-β-D-galactoside. Photographs were then taken. • 1.3. […] HFL-1 HDFs that have senesced in vitro were used (growth at 37°C, 5% CO2 and 95% humidity). More specifically, middle aged HFL-1 HDFs (cpd 59) and terminally senescent HFL-1 HDFs (cpd 65) that had senesced in the absence of any substance were used. • 3.2. The cells were seeded and maintained in complete medium (see 1.2). Culture medium supplemented with the substances [final concentration for quercetin (QUER), 18α-glycyrrhetinic acid (18α GA), and hederagenin (HED): 2 µg/ml and for quercetin caprylate (QU-CAP) three concentrations were applied: 0.5, 2 and 5 µg/ml] or the diluents (0.1% DMSO or 0.1% CAP) were added 24 h later. The cells were replenished with fresh media supplemented with the substances or the diluents every 24 h for 1 week and their numbers were then examined using a Coulter Z2 ® counter (Coulter Corporation). • 3.3. […]

HFL-1 HDFs = assay: Levels of oxidized (carbonylated) proteins, OxyBlot analysis; assay type: cell-based, human; conditions: 24 h treatment, versus relative control cells
[2] = HFL-1 cells, 2 µg/ml, 13 consecutive weeks
[3] = Table 2, 2 µg/ml, 55 days in culture
[4] = HFL-1 cells, 0, 5 µg/ml, 13 consecutive weeks
[5] = HFL-1 cells, 5 µg/ml, 13 consecutive weeks

With `CC1(C)[C@@H](O)CC[C@]2(C)[C@H]3C(=O)C=C4[C@H]5C[C@@](C)(C(=O)O)CC[C@]5(C)CC[C@@]4(C)[C@]3(C)CC[C@@H]12` [18α-glycyrrhetinic acid] the cpd [1, 2] was 67, the “cpd, change versus relative diluent control” value [1, 2] was “+2.9%” and the cpd [1, 3] was 65.02. The “appearance of the senescent phenotype” value [1] was “delay in the appearance of the senescent phenotype” and the “levels of oxidized proteins” value (HFL-1 HDFs) was “slightly lower levels of oxidized carbonylated proteins; also recorded: lower amounts of oxidized proteins”.
`CC1(C)CC[C@]2(C(=O)O)CC[C@]3(C)C(=CC[C@@H]4[C@@]5(C)CC[C@H](O)[C@@](C)(CO)[C@@H]5CC[C@]43C)[C@@H]2C1` [Hederagenin] was tested, and the cpd [1, 2] was 65.4, the “cpd, change versus relative diluent control” value [1, 2] was “+0.5%” and the cpd [1, 3] was 65.06.
With `O=c1c(O)c(-c2ccc(O)c(O)c2)oc2cc(O)cc(O)c12` [Quercetin] the cpd [1, 2] was 57.24, the cpd [1, 3] was 54.39 and the “appearance of the senescent phenotype” value [1] was “delay in the appearance of the senescent phenotype”.
In the case of quercetin caprylate, the cpd [1, 4] is reported as 65.9, the “cpd, change versus relative diluent control” value [1, 4] is reported as “+2.6%” and the cpd [1, 2] is reported as 66.0. For the same compound, the “cpd, change versus relative diluent control” value [1, 2] was “+2.8%”, the cpd [1, 5] was 65.4 and the “cpd, change versus relative diluent control” value [1, 5] was “+1.9%”. The cpd ([1]; Table 2, 0,5 µg/ml, 55 days in culture) was 65.09, the cpd [1, 3] was 64.87 and the cpd ([1]; Table 2, 5 µg/ml, 55 days in culture) was 63.96. The “more population doublings as compared to the relative control cultures” value ([1]; summary of Table 1, quercetin caprylate 0.5, 2 and 5 µg/ml, other substances 2 µg/ml) was “up to 2.8%”, the “appearance of the senescent phenotype” value [1] was “delay in the appearance of the senescent phenotype” and the “levels of oxidized proteins” value (HFL-1 HDFs) was “less oxidized proteins; also recorded: lower amounts of oxidized proteins”.
